We go through one compound from US9624242B2, “11-2(2-pyrrolidin-1-yl-ethoxy)-14,19-dioxa-5,7,26-triaza-tetracyclo[19.3.1.1(2,6).1(8,12)]heptacosa-1(25),2(26),3,5,8,10,12(27),16,21,23-decaene citrate salt” (CTI BIOPHARMA CORP., priority 2008, dated 2017).

Where a name gives a salt, the structure may show the parent alone.

Type in all cases: physicochemical
Data set [1] in a line: Thermal gravimetric analysis (TGA). Here is the method:
The samples of both hydrochloride (comparative) and citrate salts were subjected to thermal gravimetric analysis and differential scanning calorimetry under the following conditions. DSC data were collected on a TA Instruments Q2000 equipped with a 50 position auto-sampler. The instrument was calibrated for energy and temperature calibration using certified indium. Typically 0.5-3 mg of each sample, in a pin-holed aluminium pan, was heated at 10° C.·min^−1 from 25° C. to 270° C.
TGA data were collected on a TA Instruments Q500 TGA, equipped with a 16 position auto-sampler. The instrument was temperature calibrated using certified Alumel. Typically 5-30 mg of each sample was loaded onto a pre-tared platinum crucible and aluminium DSC pan, and was heated at 10° C.·min^−1 from ambient temperature to 300° C. A nitrogen purge at 60 ml·min^−1 was maintained over the sample. The instrument control software was Thermal Advantage v4.6.6 and the data were analysed using Universal Analysis v4.3A. Alternatively, TGA data were collected on a Mettler TGA/SDTA 851e equipped with a 34 position auto-sampler. The instrument was temperature calibrated using certified indium. Typically 5-30 mg to of each sample was loaded onto a pre-weighed aluminium crucible and was heated at 10° C.·min^−1 from ambient temperature to 300° C. A nitrogen purge at 50 ml·min^−1 was maintained over the sample. The instrument control and data analysis software was STARe v9.01.

Data set [2] can be described thus: Solid form analysis of salt batches (XRPD, DSC, TGA, GVS). As to conditions: citrate salt batches. The text has this: Initial studies into compound I involved analysis of the hydrochloride salt. It was found as summarised in Table 1 below, that the initially prepared hydrochloride salt produces an inconsistent solid form with significant variability in the DSC, TGA, GVS and XRPD pattern (see FIGS. 1 to 16).
The samples of both hydrochloride (comparative) and citrate salts were subjected to X-ray diffraction to determine the characteristic X-ray diffraction pattern. The conditions used were as follows: X-Ray Powder Diffraction patterns were collected on a Siemens D5000 diffractometer using Cu Kα radiation (40 kV, 40 mA), θ-θ goniometer, divergence of V20 and receiving slits, a graphite secondary monochromator and a scintillation counter. The instrument is performance checked using a certified Corundum standard (NIST 1976).
Samples run under ambient conditions were prepared as flat plate specimens using powder as received. Approximately 35 mg of the sample was gently packed into a cavity cut into polished, zero-background (510) silicon wafer. The sample was rotated in its own plane during analysis. The details of the data collection are: • Angular range: 2 to 42°2θ • Step size: 0.05°2θ • Collection time: 4 s·step^1.
Alternatively, X-Ray Powder Diffraction patterns were collected on a Bruker AXS C2 GADDS diffractometer using Cu Kα radiation (40 kV, 40 mA), automated XYZ stage, laser video microscope for auto-sample positioning and a HiStar 2-dimensional area detector. X-ray optics consists of a single Gabel multilayer mirror coupled with a pinhole collimator of 0.3 mm. The beam divergence, i.e. the effective size of the X-ray beam on the sample, was approximately 4 mm. A θ-θ continuous scan mode was employed with a sample-detector distance of 20 cm which gives an effective 2θ range of 3.2°-29.7°. Typically the sample would be exposed to the X-ray beam for 120 seconds.
Samples run under ambient conditions were prepared as flat plate specimens using powder as received without grinding. Approximately 1-2 mg of the sample was lightly pressed on a glass slide to obtain a flat surface.

A short description of data set [3]: Variable temperature X-ray diffraction. Here is the method:
Samples run under non-ambient conditions were mounted on a silicon wafer with heat-conducting compound. The sample was then heated to the appropriate temperature at ca. 10° C.·min^−1 and subsequently held isothermally for ca 2 minutes before data collection was initiated.
In order to probe the stability of the samples of the citrate salts variable temperature X-ray diffraction was carried out. Thus, the salts were scanned under X-ray diffraction conditions at a series of temperatures and the characteristic peaks determined.

Data set [4] can be described thus: Gravimetric Vapour Sorption (GVS) with post-GVS XRPD.

On to `C1=C/COCc2cc(ccc2OCCN2CCCC2)Nc2nccc(n2)-c2cccc(c2)COC/1` [Batch Citrate 1, 11-(2-pyrrolidin-1-yl-ethoxy)-14,19-dioxa-5,7,26-triaza-tetracyclo[19.3.1.1(2,6).1(8,12)]heptacosa-1(25),2(26),3,5,8,10,12(27),16,21,23-decaene], for which, in data set [1], the “decomposition / degradation temperature in TGA” value is 180 °C. The “TGA weight loss before degradation / melt with decomposition” value in data set [1] (result in words) was “no weight loss”. In addition, the “Solid Form Comment” value in data set [2] is reported as “Group A”. In addition, in data set [3], the “change of X-ray diffraction pattern with temperature” value is on record as “no change irrespective of the temperature”. The “solid form / XRPD pattern post GVS compared with before” value in data set [4] (XRPD after GVS experiment) was “no change”. Moreover, in data set [4] (between 0 and 90% RH), the “GVS water taken up” value is “less than 0.8%”. Further, in data set [4] (result in words), the hygroscopicity entry is “low hygroscopicity”.
